Common to all, as to assay type: binding
The target of one experiment is T1, HusA Y133A (Porphyromonas gingivalis, UniProt Q7MSY3, Y133A).
T1 sequence (Q7MSY3 24-218 Y133A): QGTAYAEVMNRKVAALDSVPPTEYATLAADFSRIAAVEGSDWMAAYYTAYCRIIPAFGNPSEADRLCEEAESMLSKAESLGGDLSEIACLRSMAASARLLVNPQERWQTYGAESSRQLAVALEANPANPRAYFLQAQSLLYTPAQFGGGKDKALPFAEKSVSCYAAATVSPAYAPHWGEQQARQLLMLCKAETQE
The experiment can be described thus: Tryptophan fluorescence quenching assay, HusA mutant Y133A. The note with it: haemin.

In a further experiment the target is T2, HusA R139A (Porphyromonas gingivalis, UniProt Q7MSY3, R139A).
T2 sequence (Q7MSY3 24-218 R139A): T1 sequence (Q7MSY3 24-218 Y133A)
The experiment in a line: Tryptophan fluorescence quenching assay, HusA mutant R139A. The note with it: haemin.

A further experiment deals with T3, HusA Y164A (Porphyromonas gingivalis, UniProt Q7MSY3, Y164A).
T3 sequence (Q7MSY3 24-218 Y164A): T1 sequence (Q7MSY3 24-218 Y133A)
The experiment in a line: Tryptophan fluorescence quenching assay, HusA mutant Y164A. The note with it: haemin. The method, then:
(§1) The quenching of intrinsic tryptophan fluorescence of HusA upon porphyrin additions was measured using a Carey Eclipse Fluorescence Spectrophotometer (Agilent) set to a photo multiplier effect (PME) of 850. A 5-mm path length quartz cuvette was used and all spectra were acquired at room temperature. Excitation was set to 295 nm and emission was measured from 300 nm to 500 nm using excitation/emission slit widths of 5 nm. Binding assays were performed at a protein concentration of 1 μM HusA in standard buffer at a working volume of 0.5 mL. […] The fluorescence quenching of HusA by PPIX was investigated in a similar manner with the following difference: the fluorescence intensities of ten 1 μM HusA samples were measured each with increasing amounts of PPIX after a 2-h incubation period to allow equilibrium to be reached. See Supplementary Methods for correction for inner filter effect and curve fitting. […]
(§2) Correction of inner filter effect and curve fitting in tryptophan fluorescence quenching assays The concentration of NATA was chosen such that the raw fluorescence intensity was similar to the 10 uM concentrations of HusA and mutants used. […] Fluorescence intensity was scaled with respect to the starting florescence and corrected for the inner filter effect. Fluorescence at 335 nm was used to fit binding curves. […]

Another experiment has as its target T4, HusA L123N-V124N (Porphyromonas gingivalis, UniProt Q7MSY3, L123N/V124N).
T4 sequence (Q7MSY3 24-218 L123N/V124N): T1 sequence (Q7MSY3 24-218 Y133A)
The experiment can be described thus: Tryptophan fluorescence quenching assay, HusA mutant L123N-V124N. Conditions: haemin, mutant L123N-V124N. The method, then:
as §1, §2

Another experiment has as its target T5, HusA L107A (Porphyromonas gingivalis, UniProt Q7MSY3, L107A).
T5 sequence (Q7MSY3 24-218 L107A): T1 sequence (Q7MSY3 24-218 Y133A)
The experiment can be described thus: Tryptophan fluorescence quenching assay, HusA mutant L107A. The note with it: haemin.

The next experiment deals with T6, HusA R121A (Porphyromonas gingivalis, UniProt Q7MSY3, R121A).
T6 sequence (Q7MSY3 24-218 R121A): T1 sequence (Q7MSY3 24-218 Y133A)
The experiment can be described thus: Tryptophan fluorescence quenching assay, HusA mutant R121A. Conditions: haemin.

The target in another experiment is T7, HusA W130N (Porphyromonas gingivalis, UniProt Q7MSY3, W130N).
T7 sequence (Q7MSY3 24-218 W130N): T1 sequence (Q7MSY3 24-218 Y133A)
The experiment can be described thus: Tryptophan fluorescence quenching assay, HusA mutant W130N. Conditions: haemin.

These results are taken from publication PMC6173696, “Structural properties of a haemophore facilitate targeted elimination of the pathogen Porphyromonas gingivalis” (Nature Communications, 2018).

As for `C=CC1=C(C)c2cc3[nH]c(cc4nc(cc5[nH]c(cc1n2)c(C)c5CCC(=O)O)C(CCC(=O)O)=C4C)c(C)c3C=C.[Fe+3]` [haemin], the Kd stood at 7.4 ± 0.6 µM at HusA Y133A; 6.3 ± 1.4 µM at HusA R139A; 13 ± 0.7 µM on HusA Y164A; 10.3 ± 0.7 µM at HusA L123N-V124N; 5.5 ± 0.3 µM on HusA L107A; 6.7 ± 1.2 µM on HusA R121A. The same compound displayed a dissociation constant Kd at HusA W130N of 16 ± 1.8 µM.

The term Kd denotes the concentration at which binding is half-saturated. Lower therefore signals higher affinity.
